Key:
[1] = system: ACAT activity; test: ACAT activity assay by liposome reconstitution method in human monocyte-derived macrophages; format: cell-based; conditions: 0.6 nM during 7-day culture
Text: For ACAT activity assay, the liposome reconstitution method was used. This method involves the use of a system in which the ACAT-1 protein present in the endoplasmic reticulum is reconstituted into liposomes with the use of mixed micelles comprising cholesterol/phosphatidylcholine, thereby achieving a saturated concentration level of cholesterol that can be used as an ACAT-1 substrate [Cheng D et al., J Biol Chem. 1995; 270: 685-695.]. In the case of the conventionally used microsome method, cholesterol that endogenously exists in the endoplasmic reticulum has been used as a substrate. However, in general, the endoplasmic reticulum membrane is poor in cholesterol. Therefore, it is thought that the saturated level of cholesterol capable of serving as an ACAT substrate has not been achieved, resulting in underestimation of ACAT activity. Herein, ACAT activity was assayed by adding another substrate, [^14C]oleoyl-CoA, to a reaction system and assaying the cholesterol [^14C]oleate generated through the ACAT reaction (FIG. 4).
Peripheral blood human monocytes (4×10^6 cells/2 mL) were seeded on 4 to 6 6-cm dishes and cultured for 7 days so as to differentiate into macrophages. At such time, salusin-α or salusin-β was added during culture. […] The protein concentration of the homogenized cell extraction solution was quantitatively assayed by the BCA method (Pierce). […]

[2] = system: ACAT-1 protein expression; test: ACAT-1 protein expression in cultured human monocyte-derived macrophages after differentiation (Western blotting); format: cell-based; conditions: cultured 3 more days
Method: For ACAT-1 protein detection, an anti-human ACAT-1 polyclonal antibody (DM10 donated from Dr. Chang, Dartmouth Medical School) [Chang CCY et al., J Biol Chem. 1995; 270: 29532-29540] prepared by immunizing a rabbit was used as a primary antibody (final concentration: 0.5 μg/mL) for a reaction on a transfer membrane at room temperature for 1 hour. The transfer membrane was washed with PBS-0.1% Tween 20, followed by a reaction with a secondary antibody (anti-rabbit IgG antibody: anti-rabbit IgG donkey antibody conjugated with horseradish peroxidase (HRP) (GE Healthcare Bio-Science)) at room temperature for 1 hour. For a secondary antibody, a stock solution (0.5 μL) was diluted 10,000-fold with PBS-0.1% Tween 20 (5 mL), and the resultant was used. Washing was carried out with PBS-0.1% Tween 20, followed by ACAT-1 protein detection with the use of Lumi-Light Plus (PerkinElmer Life Sciences).
In each of the experiments in Examples 1 to 6, salusin-α and salusin-β were added in the phase of differentiation of cultured human monocytes into macrophages and cells obtained on Day 7 of culture were used to examine the effects of salusin-α and salusin-13. In this Example, it was examined whether salusin-α and salusin-β would have similar effects on ACAT-1 protein expression in macrophages obtained after differentiation. […]

[3] = biological target: T1, mouse mas-like G protein-coupled receptor Al (mMrgA 1) (Mus musculus, UniProt Q91WW5); conditions: HEK293T cells expressing mMrgA1; Wang Z et al., Eur J Pharmacol. 2006; cited from earlier work
T1 construct: host or cells: HEK293T cells (heterologous expression, reported by Wang et al., Eur J Pharmacol 2006)
T1 sequence (Q91WW5 1-304): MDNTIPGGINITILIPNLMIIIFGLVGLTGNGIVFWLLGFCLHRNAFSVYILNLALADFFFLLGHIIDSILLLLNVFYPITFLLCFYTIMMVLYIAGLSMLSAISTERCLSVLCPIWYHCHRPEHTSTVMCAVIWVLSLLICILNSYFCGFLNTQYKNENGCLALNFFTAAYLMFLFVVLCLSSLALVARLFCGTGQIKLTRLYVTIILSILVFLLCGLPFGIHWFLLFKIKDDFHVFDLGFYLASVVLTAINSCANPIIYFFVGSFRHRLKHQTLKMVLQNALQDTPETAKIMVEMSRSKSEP

Substance | ACAT activity, percent of that of the control [1] | ACAT-1 protein expression level, percent of that of the control ([2]; 1.0 nM added on Day 7 after differentiation) | ligand for mMrgA1 [3] | ACAT activity relative to control [1] | ACAT-1 protein expression level relative to control ([2]; 0.6 nM added on Day 7 after differentiation)
salusin-α: peptide (SEQ ID NO: 1) comprising 28 amino acid residues, generated by processing from preprosalusin (SGALPPAPAAPRPALRAQRAGPAGPGAK; listed as Homo sapiens) | 50% | 60% | does not serve as a ligand | – | –
salusin-β: peptide (SEQ ID NO: 3) comprising 20 amino acid residues, generated by processing from preprosalusin (AIFIFIRWLLKLGHHGRAPP; listed as Homo sapiens) [reference compound] | – | – | regarded as a ligand | 1.8 times | 2.2 times

Source: patent publication US20110165173A1, “THERAPEUTIC AGENT AND DETECTION REAGENT FOR ARTERIOSCLEROTIC DISEASE WHICH TARGETS FOR SALUSIN” (PROTEINEXPRESS CO., LTD., priority 2007, published 2011)
